“Also recorded” adds a separate entry of the source. Read-outs that look alike come from different tables or passages of the source.
What was measured:
human ACAT1 = molecular target: T1, human ACAT1 (Homo sapiens, UniProt P35610); assay: In vitro assay of ACAT activity in yeast microsomes expressing human ACAT1 (inhibitor sensitivity); type: biochemical
T1 construct: A cDNA corresponding to the coding region of human ACAT1 flanked by 5 bp of 5' untranslated region and 1 bp of 3' untranslated region; made in house; host or cells: Saccharomyces cerevisiae strain SCY059 (are1 are2 deleted), vector pRS426GP, GAL1/GAL10 promoter; microsomes
T1 sequence (P35610 1-550): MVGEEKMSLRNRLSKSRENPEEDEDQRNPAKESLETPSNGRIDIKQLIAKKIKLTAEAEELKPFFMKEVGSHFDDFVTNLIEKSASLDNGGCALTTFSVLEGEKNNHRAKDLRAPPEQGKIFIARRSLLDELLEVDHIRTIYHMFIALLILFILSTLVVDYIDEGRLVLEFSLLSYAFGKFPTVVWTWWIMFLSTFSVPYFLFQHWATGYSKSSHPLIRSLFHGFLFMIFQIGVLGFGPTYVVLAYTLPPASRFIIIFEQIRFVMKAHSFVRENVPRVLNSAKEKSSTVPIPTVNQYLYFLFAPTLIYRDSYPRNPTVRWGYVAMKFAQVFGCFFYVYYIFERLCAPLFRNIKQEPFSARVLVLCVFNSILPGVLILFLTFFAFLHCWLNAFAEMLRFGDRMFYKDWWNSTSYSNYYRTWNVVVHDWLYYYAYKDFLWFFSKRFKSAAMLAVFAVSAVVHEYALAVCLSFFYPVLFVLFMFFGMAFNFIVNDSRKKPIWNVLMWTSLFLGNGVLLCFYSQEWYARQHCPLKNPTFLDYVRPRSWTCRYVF
From the text: (§1) In Vitro Assay of ACAT Activity in Yeast Microsomes. The cDNA inserts of the longest ARGP1 and ARGP2 HepG2 library clones were removed by NotI, EcoRI digestion and ligated into the yeast expression vector pRS426GP which utilizes the galactose inducible GAL1/GAL10 promoter. A cDNA corresponding to the coding region of human ACAT1 flanked by 5 bp of 5' untranslated region and 1 bp of 3' untranslated region, in pRS426GP was described previously (27). Yeast strain, SCY059 (MATα, ade2-1, can1-1, trp1-1, ura3-1, his3-11, 15, leu2-3, 112, metl4Δ14HpaI-SalI,are1ΔNA::HIS3, are2Δ::LEU2 ) with deletions in ARE1 and ARE2, the yeast homologs of human ACAT1 (4), was transformed with the above constructs or pRS426GP using lithium acetate and nucleic acid prototrophy selection (28). […] Culturing of the transformed yeast, induction of expression, microsome isolation, and sterol esterification assays were as described previously […]. In those experiments involving diethylpyrocarbonate (DEPC) to modify histidine residues, a preincubation with 100 μM DEPC was performed as described (2).
(§2) Assay of ACAT activity in ACAT negative yeast transformed with ARGP1 and ARGP2. The ability of ARGP1 and ARGP2 to esterify sterols was assayed in a sterol esterification deficient yeast strain (SCY059) in which the endogenous ARE genes were deleted . […]

ACAT2 (ARGP2) = molecular target: T2, ACAT2 (ARGP2) (Homo sapiens, UniProt O75908); assay: In vitro assay of ACAT activity in yeast microsomes expressing ARGP2 (ACAT2) (inhibitor sensitivity); type: biochemical
T2 construct: The cDNA inserts of the longest ARGP1 and ARGP2 HepG2 library clones were removed by NotI, EcoRI digestion and ligated into the yeast expression vector; made in house; host or cells: Saccharomyces cerevisiae strain SCY059 (are1 are2 deleted), vector pRS426GP, GAL1/GAL10 promoter; microsomes
T2 sequence (O75908 1-522): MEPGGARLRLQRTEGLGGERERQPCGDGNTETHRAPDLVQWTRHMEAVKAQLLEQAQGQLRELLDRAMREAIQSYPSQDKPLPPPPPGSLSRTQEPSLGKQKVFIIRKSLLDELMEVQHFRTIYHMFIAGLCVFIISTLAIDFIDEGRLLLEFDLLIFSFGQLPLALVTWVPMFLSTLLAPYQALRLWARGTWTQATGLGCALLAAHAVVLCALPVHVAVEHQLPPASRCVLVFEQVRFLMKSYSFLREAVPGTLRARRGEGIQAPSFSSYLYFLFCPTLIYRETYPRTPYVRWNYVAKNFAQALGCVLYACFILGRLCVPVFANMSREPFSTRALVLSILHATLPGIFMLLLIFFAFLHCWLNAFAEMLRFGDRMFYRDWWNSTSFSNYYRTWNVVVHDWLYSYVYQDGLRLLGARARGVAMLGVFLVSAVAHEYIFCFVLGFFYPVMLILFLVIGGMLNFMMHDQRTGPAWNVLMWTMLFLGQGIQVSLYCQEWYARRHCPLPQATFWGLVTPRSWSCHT
From the text: as §1, §2

[1] = test system: incorporation of [14C]-oleate into sterol ester; assay: In vitro microsomal ACAT activity of cDNAs expressed in ACAT-negative yeast SCY059
From the text: as §1
Assay of ACAT activity in ACAT negative yeast transformed with ARGP1 and ARGP2. The ability of ARGP1 and ARGP2 to esterify sterols was assayed in a sterol esterification deficient yeast strain (SCY059) in which the endogenous ARE genes were deleted . Microsomes from these yeast, transformed with an expression vector harboring no insert or cDNA inserts for ARGP1, ARGP2, or human ACAT1 were assayed in vitro for the incorporation of [^14 C]-oleate into sterol ester.

CCOC(=O)OC(=O)OCC [DEPC, diethylpyrocarbonate]
Degree of Inhibition (human ACAT1; 100 μm DEPC, ACAT1): 80%
Active site Modification: Plus DEPC (100 μm) (ACAT activity) (human ACAT1; ACAT1 microsomes preincubated with 100 μm DEPC, triplicate): 69 +/- 4
Degree of Inhibition (ACAT2 (ARGP2); 100 μm DEPC, ACAT2): 33%
Active site Modification: Plus DEPC (100 μm) (ACAT activity) (ACAT2 (ARGP2); ACAT2 microsomes preincubated with 100 μm DEPC, triplicate): 30 +/- 1

B1: ARGP1: ACAT Related Gene Product 1, 488 amino acid protein (SEQ ID NO:1), proposed diacylglycerol acyltransferase (protein)
chain: MGDRGSSRRRRTGSRPSSHGGGGPAAAEEEVRDAAAGPDVGAAGDAPAPAPNKDGDAGVGSGHWELRCHRLQDSLFSSDSGFSNYRGILNWCVVMLILSNARLFLENLIKYGILVDPIQVVSLFLKDPHSWPAPCLVIAANVFAVAAFQVEKRLAVGALTEQAGLLLHVANLATILCFPAAVVLLVESITPVGSLLALMAHTILFLKLFSYRDVNSWCRRARAKAASAGKKASSAAAPHTVSYPDNLTYRDLYYFLFAPTLCYELNFPRSPRIRKRFLLRRILEMLFFTQLQVGLIQQWMVPTIQNSMKPFKDMDYSRIIERLLKLAVPNHLIWLIFFYWLFHSCLNAVAELMQFGDREFYRDWWNSESVTYFWQNWNIPVHKWCIRHFYKPMLRRGSSKWMARTGVFLASAFFHEYLVSVPLRMFRLWAFTGMMAQIPLAWFVGRFFQGNYGNAAVWLSLIIGQPIAVLMYVHDYYVLNYEAPAAEA
ACAT activity (sterol esterification), result in words ([1]; expressed in yeast): did not display significant ACAT activity; also recorded: failed to detectably esterify cholesterol or ergosterol
In Vitro Microsomal ACAT activity (cholesterol ester formation rate) ([1]; microsomes of transformed yeast SCY059, exogenous cholesterol in Triton WR-1339, three experiments on different preparations): 4 +/- 3 pmol/minute/μg microsomal prot

B2: ACAT1: human acyl Coenzyme A-cholesterol acyltransferase 1 expressed in yeast from cDNA (protein, UniProt P35610 1-550, looked up)
Sterol O-acyltransferase 1: MVGEEKMSLRNRLSKSRENPEEDEDQRNPAKESLETPSNGRIDIKQLIAKKIKLTAEAEELKPFFMKEVGSHFDDFVTNLIEKSASLDNGGCALTTFSVLEGEKNNHRAKDLRAPPEQGKIFIARRSLLDELLEVDHIRTIYHMFIALLILFILSTLVVDYIDEGRLVLEFSLLSYAFGKFPTVVWTWWIMFLSTFSVPYFLFQHWATGYSKSSHPLIRSLFHGFLFMIFQIGVLGFGPTYVVLAYTLPPASRFIIIFEQIRFVMKAHSFVRENVPRVLNSAKEKSSTVPIPTVNQYLYFLFAPTLIYRDSYPRNPTVRWGYVAMKFAQVFGCFFYVYYIFERLCAPLFRNIKQEPFSARVLVLCVFNSILPGVLILFLTFFAFLHCWLNAFAEMLRFGDRMFYKDWWNSTSYSNYYRTWNVVVHDWLYYYAYKDFLWFFSKRFKSAAMLAVFAVSAVVHEYALAVCLSFFYPVLFVLFMFFGMAFNFIVNDSRKKPIWNVLMWTSLFLGNGVLLCFYSQEWYARQHCPLKNPTFLDYVRPRSWTCRYVF
In Vitro Microsomal ACAT activity (cholesterol ester formation rate) [1]: 340 +/- 76 pmol/minute/μg microsomal prot
Active site Modification: Minus DEPC (ACAT activity) ([1]; no DEPC preincubation, representative experiment in triplicate): 340 +/- 16

From patent US6100077A, “Isolation of a gene encoding diacylglycerol acyltransferase” (priority 1998, dated 2000)
